In patent US20060210611A1, “Fat soluble vitamin feed supplements and processes for delivering same” (priority 2003, published 2006):
Read-outs that look alike come from different tables or passages of the source. Values belong to the molecule of their own block, whether it stands above or below them.

Assays:
[1] = per 1 mg; cited from earlier work
[2] = Calculated average AT accretion rates in longissimus muscle (Arnold and McClure combined); format: in vivo, cattle
Text: Combining the results from Arnold and McClure, and bearing in mind that various muscles accrete AT at different rates (sirloin>inside round>RCDM>strip loin; Roeber et al., Effects of Three Levels of α-Tocopherol Acetate Supplementation to Feedlot Cattle on Performance of Beef Cuts (2001)), average accretion rates for AT in longissimus muscle can be calculated: […]

[3] = AT accretion in RCDM neck muscle at 1,000 IU vitamin E/hd/day (McClure); format: in vivo, Bos indicus crosses; conditions: 1000 IU/hd/day (McClure), 25-125 days fed
Procedure: McClure (FIG. 1) tested the rate of accretion in Bos indicus crosses when fed 1,000 IU of Vitamin E/hd/day. Groups of cattle were slaughtered at 25-day intervals, and neck muscles obtained for tissue AT analysis. Because the controls were already receiving 200 IU E/day, initial AT concentrations were above 3.5. However, RCDM (rectus capitis dorsalis major) AT concentration rose in a logarithmic fashion, eventually reaching a plateau of 9.3 μg/gm. (McClure et al., Determination of Appropriate Vitamin E Supplementation Levels and Administration Times to Ensure Adequate Muscle Tissue Alpha-Tocopherol Concentrations in Cattle Destined for the Nolan Ryan Tender-Aged Beef (NRTAAB) Program, Animal Sciences Report (2002)).

[4] = Dietary vitamin E regimens and final longissimus muscle α-tocopherol (AT) concentration (Arnold); format: in vivo, cattle
Procedure: For example, Arnold compared several dietary vitamin E regimens and their resultant final tissue concentration of α-tocopherol (AT). Comparing the results to baseline control and assuming AT accretion in longissimus muscle is linear over time, approximate rates of AT accretion are calculated for various E regimens. Because AT rise is likely logarithmic (See e.g., Arnold et al., J. Anim. Sci. 71:105-118. (1993)), these calculated rates are conservative estimates, especially for feeding periods exceeding 150 days.

[5] = cited from earlier work
[6] = cited from earlier work; remark: listed apart in the source
[7] = 360 IU/hd/day, 211-252 days fed
[8] = 1280 IU/hd/day, 211-252 days fed
[9] = 2080 IU/hd/day, 196-266 days fed
[10] = 3520 IU/hd/day, 196-266 days fed

Molecule: Cc1c(C)c2c(c(C)c1O)CC[C@@](C)(CCC[C@H](C)CCC[C@H](C)CCCC(C)C)O2 [RRR-α-tocopherol]
specific activity [1]: 1.49 IU per milligram

Molecule: CC(=O)Oc1c(C)c(C)c2c(c1C)CCC(C)(CCCC(C)CCCC(C)CCCC(C)C)O2 (racemic) [all-rac-α-tocopherol acetate]
specific activity [1]: 1.00 IU per milligram

AT Accretion ([2]; Vitamin E dose 500 IU/hd/day): 0.75-1.0 μg AT/gm wet muscle/50 days
AT Accretion ([2]; Vitamin E dose 1000+ IU/hd/day): 1.5-3.6 μg AT/gm wet muscle/50 days
AT Accretion ([2]; Vitamin E dose less than 500 IU/hd/day): 0.5-0.6 μg AT/gm wet muscle/50 days
Calculated Rise in AT per 50 days [3]: 2.6 μg/gm/50 days
Calculated Rise in AT per 50 days ([4]; 300 IU/hd/day, 231-309 days fed, vs control baseline, linear accretion assumed): 0.52 μg/gm/50 days
Calculated Rise in AT per 50 days [4, 7]: 0.64 μg/gm/50 days
Calculated Rise in AT per 50 days ([4]; 1140 IU/hd/day, 67 days fed): 3.58 μg/gm/50 days
Calculated Rise in AT per 50 days ([4]; 1200 IU/hd/day, 38 days fed): 2.76 μg/gm/50 days
Calculated Rise in AT per 50 days [4, 8]: 1.28 μg/gm/50 days
Calculated Rise in AT per 50 days [4, 9]: 1.38 μg/gm/50 days
Calculated Rise in AT per 50 days [4, 10]: 1.58 μg/gm/50 days
Molecule: Vitamin E
RCDM AT concentration plateau ([5]; 1,000 IU of Vitamin E/hd/day, slaughter at 25-day intervals): 9.3 μg/gm
Final AT concentration (in RCDM muscle) ([5]; 1000 IU/hd/day (McClure), 25-125 days fed): 9.3 μg/gm wet muscle
initial AT concentrations ([5]; controls already receiving 200 IU E/day): above 3.5
Final Longissimus AT concentration ([6]; 300 IU/hd/day, 231-309 days fed): 3.8 μg/gm wet muscle
Final Longissimus AT concentration [6, 7]: 4.1 μg/gm wet muscle
Final Longissimus AT concentration ([6]; 1140 IU/hd/day, 67 days fed): 6.2 μg/gm wet muscle
Final Longissimus AT concentration ([6]; 1200 IU/hd/day, 38 days fed): 3.5 μg/gm wet muscle
Final Longissimus AT concentration [6, 8]: 6.8 μg/gm wet muscle
Final Longissimus AT concentration [6, 9]: 6.8 μg/gm wet muscle
Final Longissimus AT concentration [6, 10]: 7.6 μg/gm wet muscle

Molecule: CC(=O)Oc1c(C)c(C)c2c(c1C)CC[C@@](C)(CCC[C@H](C)CCC[C@H](C)CCCC(C)C)O2 [RRR-α-tocopherol acetate]
specific activity [1]: 1.36 IU per milligram

Molecule: Cc1c(C)c2c(c(C)c1O)CCC(C)(CCCC(C)CCCC(C)CCCC(C)C)O2 (racemic) [all-rac-α-tocopherol]
specific activity [1]: 1.10 IU per milligram
